These results are taken from PMC9133015 (Nature Communications, 2022).

The structures appear in SMILES notation. Values joined by “and” are separate entries in the source; they are usually repeats but may differ in a detail not shown here. Identical values can stand only once. Like-named read-outs stand apart in the source and are kept apart here.

Assay in all cases: Kinase inhibitor specificity profiling (Reaction Biology Corporation)
Holding throughout (assay type): biochemical
What all share (design): % Enzyme Activity (relative to DMSO controls): concentration or dose not given beside the values

The target of assay [1] is T1, panel of 370 protein kinases (Homo sapiens, UniProt Q9H4A3).
T1 construct: purchased Reaction Biology Corporation (assay service)
T1 sequence (Q9H4A3 whole entry): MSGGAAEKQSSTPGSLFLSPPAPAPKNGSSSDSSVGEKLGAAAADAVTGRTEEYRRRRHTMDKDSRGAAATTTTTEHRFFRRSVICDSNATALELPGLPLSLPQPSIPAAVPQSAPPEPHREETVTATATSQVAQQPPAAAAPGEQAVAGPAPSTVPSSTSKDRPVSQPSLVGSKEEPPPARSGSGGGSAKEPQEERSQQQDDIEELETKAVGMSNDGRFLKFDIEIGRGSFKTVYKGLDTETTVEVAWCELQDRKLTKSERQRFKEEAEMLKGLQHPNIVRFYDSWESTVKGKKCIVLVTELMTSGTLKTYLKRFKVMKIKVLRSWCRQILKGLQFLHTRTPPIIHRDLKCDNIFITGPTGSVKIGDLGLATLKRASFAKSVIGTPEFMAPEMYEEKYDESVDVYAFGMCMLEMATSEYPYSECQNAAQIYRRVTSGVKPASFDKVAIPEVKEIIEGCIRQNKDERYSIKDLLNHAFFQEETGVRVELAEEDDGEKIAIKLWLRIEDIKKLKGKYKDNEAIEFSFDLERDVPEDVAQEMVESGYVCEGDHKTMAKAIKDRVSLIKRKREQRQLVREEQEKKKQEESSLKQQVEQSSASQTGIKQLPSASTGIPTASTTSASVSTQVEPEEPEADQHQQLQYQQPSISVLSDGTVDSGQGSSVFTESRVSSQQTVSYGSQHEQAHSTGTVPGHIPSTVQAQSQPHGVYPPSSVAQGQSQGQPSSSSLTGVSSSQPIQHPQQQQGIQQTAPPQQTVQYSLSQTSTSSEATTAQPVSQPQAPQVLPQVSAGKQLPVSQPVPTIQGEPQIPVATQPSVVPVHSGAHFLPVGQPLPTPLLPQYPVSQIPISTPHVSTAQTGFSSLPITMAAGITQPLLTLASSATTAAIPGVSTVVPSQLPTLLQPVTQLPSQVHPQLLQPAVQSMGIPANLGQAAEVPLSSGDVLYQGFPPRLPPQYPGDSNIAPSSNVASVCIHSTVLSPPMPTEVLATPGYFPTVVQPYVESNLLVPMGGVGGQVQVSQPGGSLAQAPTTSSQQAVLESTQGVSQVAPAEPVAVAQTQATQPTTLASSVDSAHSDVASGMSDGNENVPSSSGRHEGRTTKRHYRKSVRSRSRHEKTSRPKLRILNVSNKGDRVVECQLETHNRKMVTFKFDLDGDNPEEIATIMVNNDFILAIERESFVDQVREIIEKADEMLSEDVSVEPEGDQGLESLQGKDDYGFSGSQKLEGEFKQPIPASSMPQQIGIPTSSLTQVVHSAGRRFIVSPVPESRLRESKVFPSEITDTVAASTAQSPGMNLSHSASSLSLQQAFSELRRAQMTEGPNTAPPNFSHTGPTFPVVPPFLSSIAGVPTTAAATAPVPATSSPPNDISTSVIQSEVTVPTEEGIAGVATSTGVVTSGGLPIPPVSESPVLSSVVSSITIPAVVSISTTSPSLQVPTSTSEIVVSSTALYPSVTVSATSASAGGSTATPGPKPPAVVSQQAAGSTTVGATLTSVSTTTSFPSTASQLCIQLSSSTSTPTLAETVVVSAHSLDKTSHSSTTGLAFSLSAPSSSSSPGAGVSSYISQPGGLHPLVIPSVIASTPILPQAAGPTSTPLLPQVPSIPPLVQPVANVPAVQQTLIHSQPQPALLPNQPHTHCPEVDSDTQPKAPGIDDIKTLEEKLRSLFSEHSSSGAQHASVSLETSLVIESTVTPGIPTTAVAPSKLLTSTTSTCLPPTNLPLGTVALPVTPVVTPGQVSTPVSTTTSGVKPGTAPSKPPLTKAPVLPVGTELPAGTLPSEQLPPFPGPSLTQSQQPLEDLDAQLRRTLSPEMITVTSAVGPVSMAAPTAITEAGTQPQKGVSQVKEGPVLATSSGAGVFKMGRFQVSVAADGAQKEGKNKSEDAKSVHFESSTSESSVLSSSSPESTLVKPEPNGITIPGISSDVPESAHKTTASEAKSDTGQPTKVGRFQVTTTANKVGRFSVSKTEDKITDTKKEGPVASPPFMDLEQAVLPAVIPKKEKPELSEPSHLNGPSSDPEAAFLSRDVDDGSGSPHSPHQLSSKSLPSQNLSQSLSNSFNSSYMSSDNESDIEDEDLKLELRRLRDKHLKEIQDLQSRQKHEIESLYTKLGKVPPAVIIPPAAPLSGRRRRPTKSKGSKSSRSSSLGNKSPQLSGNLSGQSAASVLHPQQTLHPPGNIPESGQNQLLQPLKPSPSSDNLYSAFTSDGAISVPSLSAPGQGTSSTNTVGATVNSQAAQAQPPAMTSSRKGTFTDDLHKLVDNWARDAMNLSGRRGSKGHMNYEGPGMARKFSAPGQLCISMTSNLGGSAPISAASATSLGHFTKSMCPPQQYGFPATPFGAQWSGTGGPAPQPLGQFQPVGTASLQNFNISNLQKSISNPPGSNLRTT
The note with it: kinase WNK1.

For assay [2], the target named is T2, panel of 370 protein kinases (Homo sapiens, UniProt Q13470).
T2 construct: purchased Reaction Biology Corporation (assay service)
The note with it: 2 h, kinase TNK1; read-out: % Enzyme Activity (relative to DMSO controls).

The target of assay [3] is T3, panel of 370 protein kinases (Homo sapiens, UniProt Q13873).
T3 construct: purchased Reaction Biology Corporation (assay service)
T3 sequence (Q13873 27-1038): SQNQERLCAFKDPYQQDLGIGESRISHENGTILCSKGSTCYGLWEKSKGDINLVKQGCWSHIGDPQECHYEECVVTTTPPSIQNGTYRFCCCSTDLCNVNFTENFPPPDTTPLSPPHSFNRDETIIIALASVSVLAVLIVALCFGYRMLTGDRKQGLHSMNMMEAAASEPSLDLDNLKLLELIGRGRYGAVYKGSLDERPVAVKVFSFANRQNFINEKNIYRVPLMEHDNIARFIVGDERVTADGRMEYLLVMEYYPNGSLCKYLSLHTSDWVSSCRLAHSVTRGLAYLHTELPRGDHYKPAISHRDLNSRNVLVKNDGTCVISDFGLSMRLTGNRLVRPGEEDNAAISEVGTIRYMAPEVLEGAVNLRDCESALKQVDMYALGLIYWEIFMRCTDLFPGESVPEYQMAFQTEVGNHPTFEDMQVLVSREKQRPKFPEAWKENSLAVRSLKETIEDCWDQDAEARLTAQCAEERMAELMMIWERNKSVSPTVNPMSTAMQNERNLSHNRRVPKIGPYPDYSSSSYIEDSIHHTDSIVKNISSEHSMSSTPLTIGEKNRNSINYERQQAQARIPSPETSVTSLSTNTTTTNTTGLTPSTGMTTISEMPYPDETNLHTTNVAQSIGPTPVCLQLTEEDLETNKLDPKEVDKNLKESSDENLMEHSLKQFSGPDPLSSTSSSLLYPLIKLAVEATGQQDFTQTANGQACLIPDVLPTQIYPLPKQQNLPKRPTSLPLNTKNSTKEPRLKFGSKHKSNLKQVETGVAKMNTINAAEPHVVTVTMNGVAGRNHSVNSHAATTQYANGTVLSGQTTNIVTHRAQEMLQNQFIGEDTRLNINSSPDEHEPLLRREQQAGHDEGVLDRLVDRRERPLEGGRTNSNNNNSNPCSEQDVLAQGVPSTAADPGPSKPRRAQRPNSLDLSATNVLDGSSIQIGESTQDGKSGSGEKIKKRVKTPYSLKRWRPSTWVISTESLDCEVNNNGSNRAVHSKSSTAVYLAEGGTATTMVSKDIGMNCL
The note with it: kinase BMPR2.

Assay [4] has as its target T4, panel of 370 protein kinases (Homo sapiens, UniProt Q00534).
T4 construct: purchased Reaction Biology Corporation (assay service)
The note with it: 2 h, read-out: % Enzyme Activity (relative to DMSO controls).

Assay [5] addresses T5, panel of 370 protein kinases (Homo sapiens, UniProt Q00536).
T5 construct: purchased Reaction Biology Corporation (assay service)
The note with it: 2 h, kinase CDK16/cyclin Y (PCTAIRE); read-out: % Enzyme Activity (relative to DMSO controls).

Assay [6] has as its target T6, panel of 370 protein kinases (Homo sapiens, UniProt Q8N568).
T6 construct: purchased Reaction Biology Corporation (assay service)
The note with it: 2 h, kinase DCAMKL2; read-out: % Enzyme Activity (relative to DMSO controls).

Assay [7] concerns the target T7, panel of 370 protein kinases (Homo sapiens, UniProt Q12851).
T7 construct: purchased Reaction Biology Corporation (assay service)
The note with it: 2 h, kinase GCK/MAP4K2; read-out: % Enzyme Activity (relative to DMSO controls).

Assay [8] addresses T8, panel of 370 protein kinases (Homo sapiens, UniProt Q16620).
T8 construct: purchased Reaction Biology Corporation (assay service)
The note with it: 2 h, kinase TRKB; read-out: % Enzyme Activity (relative to DMSO controls).

For assay [9], the target named is T9, panel of 370 protein kinases (Homo sapiens, UniProt Q9BXA6).
T9 construct: purchased Reaction Biology Corporation (assay service)
T9 sequence (Q9BXA6 whole entry): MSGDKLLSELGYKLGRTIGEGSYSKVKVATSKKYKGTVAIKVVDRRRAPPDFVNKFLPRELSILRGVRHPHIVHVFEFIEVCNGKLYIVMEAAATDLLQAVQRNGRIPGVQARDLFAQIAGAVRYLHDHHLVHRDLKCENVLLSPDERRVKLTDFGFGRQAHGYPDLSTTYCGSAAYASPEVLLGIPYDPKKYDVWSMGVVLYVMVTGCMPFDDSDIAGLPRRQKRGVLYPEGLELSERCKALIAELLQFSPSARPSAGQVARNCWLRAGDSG
The note with it: 2 h, kinase SSTK/TSSK6; read-out: % Enzyme Activity (relative to DMSO controls).

The target of assay [10] is T10, panel of 370 protein kinases (Homo sapiens, UniProt P54764).
T10 construct: purchased Reaction Biology Corporation (assay service)
The note with it: 2 h, kinase EPHA4; read-out: % Enzyme Activity (relative to DMSO controls).

Assay [11] concerns the target T11, panel of 370 protein kinases (Homo sapiens, UniProt P07947).
T11 construct: purchased Reaction Biology Corporation (assay service)
The note with it: 2 h, kinase YES/YES1; read-out: % Enzyme Activity (relative to DMSO controls).

Assay [12] concerns the target T12, panel of 370 protein kinases (Homo sapiens, UniProt Q15835).
T12 construct: purchased Reaction Biology Corporation (assay service)
The note with it: 2 h, kinase GRK1; read-out: % Enzyme Activity (relative to DMSO controls).

Assay [13] has as its target T13, panel of 370 protein kinases (Homo sapiens, UniProt Q5VT25).
T13 construct: purchased Reaction Biology Corporation (assay service)
The note with it: 2 h, kinase MRCKa/CDC42BPA; read-out: % Enzyme Activity (relative to DMSO controls).

The target in assay [14] is T14, panel of 370 protein kinases (Homo sapiens, UniProt P22455).
T14 construct: purchased Reaction Biology Corporation (assay service)
The note with it: 2 h, kinase FGFR4; read-out: % Enzyme Activity (relative to DMSO controls).

Assay [15] has as its target T15, panel of 370 protein kinases (Homo sapiens, UniProt Q9Y243).
T15 construct: purchased Reaction Biology Corporation (assay service)
The note with it: 2 h, kinase AKT3; read-out: % Enzyme Activity (relative to DMSO controls).

Assay [16] has as its target T16, panel of 370 protein kinases (Homo sapiens, UniProt Q9UL54).
T16 construct: purchased Reaction Biology Corporation (assay service)
The note with it: 2 h, kinase TAOK2/TAO1; read-out: % Enzyme Activity (relative to DMSO controls).

Assay [17] concerns the target T17, panel of 370 protein kinases (Homo sapiens, UniProt P78362).
T17 construct: purchased Reaction Biology Corporation (assay service)
The note with it: 2 h, kinase SRPK2; read-out: % Enzyme Activity (relative to DMSO controls).

The target of assay [18] is T18, panel of 370 protein kinases (Homo sapiens, UniProt Q13976).
T18 construct: purchased Reaction Biology Corporation (assay service)
The note with it: 2 h, kinase PKG1a; read-out: % Enzyme Activity (relative to DMSO controls).

Assay [19] has as its target T19, panel of 370 protein kinases (Homo sapiens, UniProt P20794).
T19 construct: purchased Reaction Biology Corporation (assay service)
The note with it: 2 h, kinase MAK; read-out: % Enzyme Activity (relative to DMSO controls).

The target of assay [20] is T20, panel of 370 protein kinases (Homo sapiens, UniProt P22612).
T20 construct: purchased Reaction Biology Corporation (assay service)
The note with it: 2 h, kinase PKAcg; read-out: % Enzyme Activity (relative to DMSO controls).

Assay [21] concerns the target T21, panel of 370 protein kinases (Homo sapiens, UniProt O00506).
T21 construct: purchased Reaction Biology Corporation (assay service)
The note with it: 2 h, kinase STK25/YSK1; read-out: % Enzyme Activity (relative to DMSO controls).

T4 sequence (Q00534 whole entry): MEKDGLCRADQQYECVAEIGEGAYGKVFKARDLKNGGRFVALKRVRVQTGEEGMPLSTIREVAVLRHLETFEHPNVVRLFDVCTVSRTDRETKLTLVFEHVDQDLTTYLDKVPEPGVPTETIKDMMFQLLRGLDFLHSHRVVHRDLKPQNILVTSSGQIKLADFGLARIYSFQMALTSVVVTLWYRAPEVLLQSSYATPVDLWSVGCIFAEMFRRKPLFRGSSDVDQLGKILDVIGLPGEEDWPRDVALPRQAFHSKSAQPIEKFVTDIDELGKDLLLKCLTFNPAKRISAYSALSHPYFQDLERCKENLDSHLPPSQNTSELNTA
T21 sequence (O00506 whole entry): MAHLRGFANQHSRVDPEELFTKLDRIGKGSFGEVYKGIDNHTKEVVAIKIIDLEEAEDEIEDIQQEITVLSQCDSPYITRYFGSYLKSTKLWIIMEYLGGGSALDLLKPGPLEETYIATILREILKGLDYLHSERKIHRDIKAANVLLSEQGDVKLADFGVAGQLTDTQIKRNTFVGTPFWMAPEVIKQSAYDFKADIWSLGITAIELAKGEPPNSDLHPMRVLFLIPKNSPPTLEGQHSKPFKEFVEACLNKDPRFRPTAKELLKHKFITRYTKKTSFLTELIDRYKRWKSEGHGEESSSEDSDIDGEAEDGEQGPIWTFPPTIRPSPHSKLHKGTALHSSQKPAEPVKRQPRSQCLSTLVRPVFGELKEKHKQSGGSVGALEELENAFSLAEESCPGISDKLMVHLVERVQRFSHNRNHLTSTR
T11 sequence (P07947 whole entry): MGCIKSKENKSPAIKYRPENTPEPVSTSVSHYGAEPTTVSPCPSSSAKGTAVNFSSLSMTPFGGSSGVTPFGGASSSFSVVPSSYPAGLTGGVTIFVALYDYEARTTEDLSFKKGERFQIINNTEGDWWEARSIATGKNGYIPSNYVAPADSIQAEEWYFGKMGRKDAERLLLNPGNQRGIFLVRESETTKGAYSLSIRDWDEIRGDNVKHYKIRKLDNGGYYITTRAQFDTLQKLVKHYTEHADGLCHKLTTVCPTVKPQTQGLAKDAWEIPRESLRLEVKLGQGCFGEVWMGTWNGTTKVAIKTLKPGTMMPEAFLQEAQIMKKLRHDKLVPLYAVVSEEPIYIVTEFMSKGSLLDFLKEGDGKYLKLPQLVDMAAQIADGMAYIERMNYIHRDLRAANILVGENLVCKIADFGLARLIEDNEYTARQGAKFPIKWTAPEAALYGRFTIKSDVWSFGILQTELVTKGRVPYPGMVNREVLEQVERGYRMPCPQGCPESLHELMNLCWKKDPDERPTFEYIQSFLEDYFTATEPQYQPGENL

For the molecule `CCN1CCN(C(=O)c2ccc(Nc3ncc(F)c(-c4ccc5nc(N(C)C)sc5c4)n3)nc2)CC1` [YK-2-69], the “% Enzyme Activity (relative to DMSO controls)” value is 116.91% and 108.19% in assay [1]; 80.68% and 76.25% in [3]. Further, the remaining activity at 1 µM turned out to be 95.3% in assay [2]; 8.21% in [4] (kinase CDK6/cyclin D1); 71.9% in assay [4] (kinase CDK6/cyclin D3); 85.7% in [5]; 108% in assay [6]; 96% in [7]. Besides, the remaining activity at 1 µM in [8] came out at 88.6%; in [9], 107%; in assay [10], 70.2%; in [11] it was 108%; in assay [12] it was 97.2%; in assay [13], 111%. Also, the remaining activity at 1 µM came to 88.9% in assay [14]; 88.2% in assay [15]; 97% in assay [16]; 89.3% in [17]; 92.2% in assay [18]; 71.7% in [19]. In addition, the figures for the remaining activity at 1 µM in [20] and in assay [21] were 96.9% and 102%, respectively.
